Experimental data as given in patent US20050065118A1, “Organosulfur inhibitors of tyrosine phosphatases” (priority 2001, published 2005).

Target: T1, PTP-1B (Homo sapiens, UniProt P18031)
T1 sequence (P18031 1-435): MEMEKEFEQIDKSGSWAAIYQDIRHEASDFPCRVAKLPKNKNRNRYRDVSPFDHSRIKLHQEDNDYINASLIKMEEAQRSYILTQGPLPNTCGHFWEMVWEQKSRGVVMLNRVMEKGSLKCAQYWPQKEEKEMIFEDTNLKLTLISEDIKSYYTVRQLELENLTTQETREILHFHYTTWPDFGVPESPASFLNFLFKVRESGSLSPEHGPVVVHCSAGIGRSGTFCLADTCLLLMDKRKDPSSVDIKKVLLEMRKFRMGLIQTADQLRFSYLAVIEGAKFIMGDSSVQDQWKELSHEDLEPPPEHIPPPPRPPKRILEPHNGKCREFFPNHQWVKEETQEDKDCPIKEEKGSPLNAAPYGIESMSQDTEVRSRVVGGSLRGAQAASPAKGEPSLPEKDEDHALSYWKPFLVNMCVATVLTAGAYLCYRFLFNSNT
Experiment: PTP-1B inhibition, Malachite Green assay with pIRP substrate
Type: biochemical
Procedure: The compounds of the present invention are evaluated for biological activity as inhibitors of PTP-1B using, for example, a Malachite Green assay with pIRP as a substrate. The pIRP substrate includes a phosphotyrosine residue, and PTP-1B cleaves the phosphate group from the tyrosine, yielding the peptide and phosphate. The rate of the enzymatic reaction is determined by measuring the phosphate released during the reaction.
The reactants for the assay include 20 mM Tris-HCl, pH 7.4, 2 mM EDTA (ethylaminediamine tetraacetic acid) and 2 mM DTT (dithiothreitol) as the assay buffer, and 1 mM pIRP in assay buffer (1 mg in 0.59 mL buffer) as the substrate stock. The Malachite Green solution is prepared by adding 30 μL of 1% Tween 20 to 1 mL of Malachite Green Solution A. The stock of each compound to be tested is made up as 10 mM in DMSO (dimethylsulfoxide).
The compound to be tested is prepared as 1:5, 1:15.8, 1:50 and 1:158 dilutions from stock in a total volume of […]. The reaction mixtures are prepared in a 96-well microtiter plate as 27.5 μL assay buffer, […] of the diluted compound (to a final concentration of 100, 32, 10 and 3.2 μM), 10 μL of the pIRP substrate solution (to a final concentration of 200 μM) and 10 μL PTPase in assay buffer. The reactants are mixed well, the plate placed in a water bath at 30° C. and incubated for 3 minutes. The reaction is then terminated by adding 100 μL of Malachite Green solution per well, color is allowed to develop for 15 minutes, and the A650 is measured by conventional means.
Unless otherwise indicated, this assay was used to determine activity for the selected compounds whose activity is recorded in the Table.

Row | IC50 [µM] | Compound
1 | 10 | O=C(O)c1cccc(Nc2nnc(-c3cc(OCc4ccccc4)cc(OCc4ccccc4)c3)s2)c1 [Compound 188, 3-[5-(3,5-Bis-benzyloxy-phenyl)-[1,3,4]thiadiazol-2-ylamino]-benzoic acid]
2 | 4 | O=C(O)c1cccc(Nc2nnc(-c3cc(Oc4cccc(C(F)(F)F)c4)cc(Oc4cccc(C(F)(F)F)c4)c3)s2)c1 [Compound 198, 3-{5-[3,5-Bis-(3-trifluoromethyl-phenoxy)-phenyl]-[1,3,4]thiadiazol-2-ylamino}-benzoic acid]

Row | Compound | IC50 [µM]
3 | O=C(O)c1ccc(CN(c2ccc(Cl)c(Cl)c2)c2nc(-c3ccc(-c4ccccc4)cc3)cs2)cc1 [Example 168, 4-({(3,4-dichlorophenyl)[4-(4-phenylphenyl)(1,3-thiazol-2-yl)]amino}methyl)benzoic acid.] | 1

Tested on: not given
Experiment: not given

Row | melting point [°C] | Compound
4 | 194 to 196 | O=C(O)CCc1cccc(Oc2cccc(-c3nnc(Nc4ccc(Cl)c(Cl)c4)s3)c2)c1 [Example 9, 3-[3-(3-{5-[(3,4-Dichlorophenyl)amino]-1,3,4-thiadiazol-2-yl}phenoxy)phenyl]propanoic acid]
5 | 208 to 209 | COc1ccc(CSc2cccc(Nc3nnc(-c4cccc([N+](=O)[O-])c4)s3)c2)cc1 [Example 41, {3-[(4-Methoxyphenyl)methylthio]phenyl}[5-(3-nitrophenyl)(1,3,4-thiadiazol-2-yl)]amine]
6 | 185 to 187 | COc1cccc(-c2nnc(Nc3ccc(F)c(Cl)c3)s2)c1 [Example 68, (3-chloro-4-fluorophenyl)[5-(3-methoxyphenyl)(1,3,4-thiadiazol-2-yl)]amine]
7 | 215 to 217 | COc1cccc(-c2nnc(Nc3ccc(Br)c(Cl)c3)s2)c1 [Example 69, (4-bromo-3-chlorophenyl)[5-(3-methoxyphenyl)(1,3,4-thiadiazol-2-yl)]amine]
8 | 170 to 172 | CCOc1cccc(-c2nnc(Nc3ccc(F)c(Cl)c3)s2)c1 [Example 70, (3-chloro-4-fluorophenyl)[5-(3-ethoxyphenyl)(1,3,4-thiadiazol-2-yl)]amine]
9 | 210.5 to 211.5 | O=[N+]([O-])c1cccc(Oc2cccc(-c3nnc(Nc4ccc(Cl)c(Cl)c4)s3)c2)c1 [Example 126, (3,4-dichlorophenyl){5-[3-(3-nitrophenoxy)phenyl](1,3,4-thiadiazol-2-yl)}amine]
10 | 183 to 184 | O=C(O)Cc1cccc(Oc2cccc(-c3nnc(Nc4ccc(Cl)c(Cl)c4)s3)c2)c1 [Example 127, 2-[3-(3-{5-[(3,4-dichlorophenyl)amino]-1,3,4-thiadiazol-2-yl}phenoxy)phenyl]acetic acid]
11 | 224 to 225.5 | Oc1ccc(Oc2cccc(-c3nnc(Nc4ccc(Cl)c(Cl)c4)s3)c2)cc1 [Example 128, 4-(3-{-[(3,4-dichlorophenyl)amino]-1,3,4-thiadiazol-2-yl}phenoxy)phenol]
12 | 166 to 167 | FC(F)(F)Oc1cccc(COc2cccc(-c3nnc(Nc4ccc(Cl)c(Cl)c4)s3)c2)c1 [Example 129, (3,4-dichlorophenyl)[5-(3-{[3-(trifluoromethoxy)phenyl]methoxy}phenyl)(1,3,4-thiadiazol-2-yl)]amine]
13 | 198 to 199 | COc1ccc(Oc2cccc(-c3nnc(Nc4ccc(Cl)c(Cl)c4)s3)c2)cc1 [Example 150, (3,4-dichlorophenyl)(5-[3-(4-methoxyphenoxy)phenyl](1,3,4-thiadiazol-2-yl)}amine]
14 | 210 to 211 | Cc1ccc(Oc2cccc(-c3nnc(Nc4ccc(Cl)c(Cl)c4)s3)c2)cc1 [Example 151, (3,4-dichlorophenyl){5-[3-(4-methylphenoxy)phenyl](1,3,4-thiadiazol-2-yl)}amine]
15 | 242 to 243 | Clc1cc(Cl)cc(Oc2cccc(-c3nnc(Nc4ccc(Cl)c(Cl)c4)s3)c2)c1 [Example 152, (3,4-dichlorophenyl){5-[3-(3,5-dichlorophenoxy)phenyl](1,3,4-thiadiazol-2-yl)}amine]
16 | 189 to 190 | Clc1ccc(Nc2nnc(-c3cccc(Oc4ccc(Cl)c(Cl)c4)c3)s2)cc1Cl [Example 153, (3,4-dichlorophenyl)(5-[3-(3,4-dichlorophenoxy)phenyl](1,3,4-thiadiazol-2-yl)}amine]
17 | 212 to 213 | FC(F)(F)c1cccc(Oc2cccc(-c3nnc(Nc4ccc(Cl)c(Cl)c4)s3)c2)c1 [Example 154, (3,4-dichlorophenyl)(5-{3-[3-(trifluoromethyl)phenoxy]phenyl}(1,3,4-thiadiazol-2-yl))amine]
18 | 128 to 130 | Nc1nnc(-c2cccc(Oc3cccc(COc4ccc(Cl)c(Cl)c4)c3)c2)s1 [Example 158, (3,4-dichlorophenyl)(5-{3-[3-(oxymethyl)phenoxy]phenyl)(1,3,4-thiadiazol-2-yl))amine]
19 | 212 to 214 | Clc1ccc(Nc2nnc(-c3cc(OCc4ccccc4)cc(OCc4ccccc4)c3)s2)cc1Cl [Example 160, (3,4-dichlorophenyl){5-[3,5-bis(phenylmethoxy)phenyl](1,3,4-thiadiazol-2-yl)}amine]
20 | 315 to 317 | Clc1ccc(Nc2nnc(-c3ccc4nonc4c3)s2)cc1Cl [Example 162, (5-benzo[c]1,2,5-oxadiazol-5-yl(1,3,4-thiadiazol-2-yl))(3,4-dichlorophenyl)amine]

Further lines, the molecule ahead of its results:

Row | Compound | melting point [°C]
21 | O=C(O)CCSC(c1cccc(-c2nnc(Nc3ccc(Cl)c(Cl)c3)s2)c1)c1cccc(C(F)(F)F)c1 (centres unmarked) | 140 to 141
22 | O=[N+]([O-])c1cccc(-c2nnc(Nc3cccc(Br)c3)s2)c1 [Example 1, N2-(3-bromophenyl)-5-(3-nitrophenyl)-1,3,4-thiadiazol-2-amine] | 273 to 275
23 | O=[N+]([O-])c1ccccc1OCc1nnc(Nc2cccc(Br)c2)s1 [Example 36, (3-Bromophenyl){5-[(2-nitrophenoxy)methyl](1,3,4-thiadiazol-2-yl)}amine] | 184 to 185
24 | CCOc1cccc(-c2nnc(Nc3ccc(Br)c(C)c3)s2)c1 [Example 71, (4-bromo-3-methylphenyl)[5(3-ethoxyphenyl)(1,3,4-thiadiazol-2-yl)]amine] | 201 to 202
25 | CCOc1cccc(-c2nnc(Nc3cccc(Br)c3)s2)c1 [Example 74, (3-bromophenyl)[5-(3-ethoxyphenyl)(1,3,4-thiadiazol-2-yl)]amine] | 195 to 197
26 | O=[N+]([O-])c1cccc(-c2nnc(Nc3cccc(Cl)c3Cl)s2)c1 [Example 76, (2,3-dichlorophenyl)[5-(3-nitrophenyl)(1,3,4-thiadiazol-2-yl)]amine] | 240 to 242
27 | Clc1cc(Nc2nnc(-c3ccc4nonc4c3)s2)ccc1Br [Example 122, (5-benzo[3,4-c]1,2,5-oxadiazol-5-yl(1,3,4-thiadiazol-2-yl))(4-bromo-3-chlorophenyl)amine] | 326 to 327
28 | CCOC(=O)c1ccc(Nc2nnc(-c3ccc(Oc4ccccc4)cc3)s2)cc1 [Example 123, ethyl 4-{[5-(4-phenoxyphenyl)-1,3,4-thiadiazol-2-yl]amino}benzoate] | 206 to 207
29 | CCOc1cccc(-c2nnc(N(Cc3cccc([N+](=O)[O-])c3)c3ccc(Cl)c(Cl)c3)s2)c1 [Example 147, (3,4-dichlorophenyl)[5-(3-ethoxyphenyl)(1,3,4-thiadiazol-2-yl)][(3-nitrophenyl)methyl]amine] | 114 to 115
30 | O=C(O)c1ccc(CN(c2ccc(Cl)c(Cl)c2)c2nnc(-c3cccc(Oc4cccc(C(F)(F)F)c4)c3)s2)cc1 [Example 157, 4-{[(3,4-dichlorophenyl)(5-{3-[3-(trifluoromethyl)phenoxy]phenyl}-(1,3,4-thiadiazol-2-yl))amino]methyl}benzoic acid] | 114 to 116
31 | CC(=NNc1ccc(C(=O)O)cc1)c1cccc(Nc2nnc(-c3cccc(Oc4cccc(C(F)(F)F)c4)c3)s2)c1 [Example 165, 4-{N′-[1-(3-{5-[3-(3-Trifluoromethyl-phenoxy)-phenyl]-[1,3,4]thiadiazol-2-ylamino}-phenyl)-ethylidene]-hydrazino}-benzoic acid] | 277.5 to 279
32 | O=C(O)c1ccc(CNc2nnc(-c3cccc(Oc4ccccc4)c3)s2)cc1 [Example 166, 4-({[5-(3-phenoxyphenyl)-1,3,4-thiadiazol-2-yl]amino}methyl)benzoic acid] | 192 to 195
